The structures appear in SMILES notation.

This experiment relates to Hsp27, Hsp40, Hsp60, Hsp70, Hsp90 expression in Tsc2-sh neurons. The experiment in a line: Western blot of heat shock proteins in Tsc2-sh neurons. Conditions: for down-regulating Hsp27 expression: increasing doses for four days DIV 9-13. Type of experiment: cell-based, rat. From the text:
To investigate the mechanism and explore the pharmacological window by which 17-AGG increases ciliation in Tsc2-knockdown neurons, the heat shock response in these neurons was examined. The heat shock proteins (Hsps) are divided into six families based on their size, and these proteins function in multi-component complexes that are closely inter-related (Chatterjee and Burns, Targeting Heat Shock Proteins in Cancer: A Promising Therapeutic Approach; Int J Mol Sci 18 (2017)). In addition, while most of them are constitutively expressed, some are expressed only under stress (Garrido et al., Heat shock proteins 27 and 70: anti-apoptotic proteins with tumorigenic properties; Cell Cycle 5, 2592-2601 (2006)). Expression levels of Hsp90 and other HSP family members at DIV13 and DIV20 was assessed following four days of treatment with different concentrations of the Hsp90 inhibitor 17-AGG. In the absence of any compound, Tsc2-knockdown neurons had increased levels of the small heat shock protein 27 (Hsp27) with no change in Hsp90, Hsp70, Hsp60 and Hsp40 (FIGS. 5A-L). […] In addition, there was no change observed in Hsp27 expression due to treatment with 17-AGG in Tsc2 knockdown neurons at DIV20, consistent with the lack of effect on cilia at that age (FIGS. 5G-H, FIG. 10F). Inhibition of the Hsp90 pathway by 17-AGG was confirmed by induction of Hsp40 and Hsp70, consistent with the reported release of Hsp90-dependent inhibition on HSF1 (Zou et al., Repression of heat shock transcription factor HSF1 activation by HSP90 (HSP90 complex) that forms a stress-sensitive complex with HSF1; Cell 94, 471-480 (1998)) (FIGS. 5A, C, E, G, K). It was then evaluated whether Hsp27 upregulation was linked to mTORC1 hyper-activation. […] These findings indicate that Hsp27 contributes to the mTORC1-dependent mechanism implicated in defective ciliation under loss of neuronal TSC1/2 activity.
To test whether Hsp27 down-regulation may contribute to restoring ciliation in Tsc2-deficient neurons, Hsp27 was knocked-down by hspB1 gene silencing using lentiviral expression of RFP-tagged Hsp27shRNA (RFP-Hsp27sh) or scrambled shRNA as a control (RFP-C).
The effect of CUDC-305 and NPV-HSP-990 on Hsp27 expression was then tested.
Protein extracts were lysed in 1×SDS (22 mM Tris-HCl pH 6.8, 4% Glycerol, 0.8% SDS, 1.6% β-mercaptoethanol, bromphenol blue) sample buffer, heated to 95° C. for 5 min and stored frozen. Before being subjected to discontinuous gel electrophoresis, equal amounts of all protein lysates were verified by Coomassie gel staining. For immunoblotting, equal amounts of protein lysates were subjected to SDS-PAGE, transferred to Immobilon-P Millipore and incubated in LI-COR blocking solution at RT for 2 hrs. Primary and secondary antibodies were diluted in LI-COR blocking solution to the appropriate concentrations. LI-COR IRDye secondary antibodies were used. All images were acquired using the LI-COR Odyssey Classic imager and associated Image Studio Lite analysis software (version 5.2.5). Quantification of protein expression was performed by densitometry scans of immunoblots using LI-COR Odyssey imaging system.
Western blot quantifications were performed by protein normalization using GAPDH as loading control. Level of phosphorylated proteins was expressed as the ratio of phosphorylated/total level after GAPDH normalization. Low sample size datasets were tested for normality and when appropriate they were analyzed with non-parametric tests. IC50 values were calculated using the nonlinear regression equation “dose-response curves—Inhibition” of GraphPad PRISM. Data were expressed as percent of vehicle-treated Tsc2-sh neurons which were considered 100% and drug's concentrations were transformed to logarithmic 10 scale. EC50 values were calculated using the nonlinear regression equation “dose-response curves—Stimulation” of Prism. […]

The mark [1] stands for this setting: Tsc2-sh neurons, four-day dose curve.

For the compound `C=CCNC1=C2C[C@@H](C)C[C@H](OC)[C@H](O)[C@@H](C)/C=C(\C)[C@H](OC(N)=O)[C@@H](OC)C=C/C=C(\C)C(=O)NC(=CC1=O)C2=O` [17-AGG, 3 S,5S,6R,7S,8E,10R,11S,12E,14E)-21-(allylamino)-6-hydroxy-5,11-dimethoxy-3,7,9,15-tetramethyl-16,20,22-trioxo-17-azabicyclo[16.3.1]docosa-8,12,14,18,21-pentaen-10-yl] carbamate], under setting [1], the Hsp40 expression entry is recorded as “induction” and the Hsp70 expression entry was “induction”. Besides, for the setting “Tsc2 knockdown cultures at DIV13, four days of 17-AGG ranging from 5-450 nM”, the “aberrant Hsp27 expression” value is reported as “reduced”. Besides, the Hsp27 expression entry (Tsc2 knockdown neurons at DIV20, four days of treatment) is given as “no change”. Regarding `CN(C)c1cc2c(cc1Sc1nc3c(N)nccc3n1CCNCC(C)(C)C)OCO2` [CUDC-305, 4-amino-2-[[6-(dimethylamino)-1,3-benzodioxol-5-yl]thio]-N-(2,2-dimethylpropyl)-1H-imidazo[4,5-c]pyridine-1-ethanamine], under “Tsc2-sh neurons”, the “down-regulating Hsp27 expression” value was “Neither compound had a significant effect”. On to `COc1cccc(-c2cc(F)ccc2[C@H]2Cc3nc(N)nc(C)c3C(=O)N2)n1` [NPV-HSP-990, (R)-2-amino-7-((R)-4-fluoro-2-(6-methoxypyridin-2-yl)phenyl)-4-methyl-7,8-dihydropyrido[4,3-d]pyrimidin-5(6H)-one], for which the “down-regulating Hsp27 expression” value (Tsc2-sh neurons) is recorded as “Neither compound had a significant effect”.

For `CO[C@H]1C[C@@H]2CC[C@@H](C)[C@@](O)(O2)C(=O)C(=O)N2CCCC[C@H]2C(=O)O[C@H]([C@H](C)C[C@@H]2CC[C@@H](O)[C@H](OC)C2)CC(=O)[C@H](C)/C=C(\C)[C@@H](O)[C@@H](OC)C(=O)[C@H](C)C[C@H](C)/C=C/C=C/C=C/1C` [rapamycin], the Hsp27 upregulation result (Tsc2-sh neurons, 20 nM rapamycin between DIV9-13, measured at DIV13) is given as “reduced”.

The record behind these values is patent US20230218577A1, “USE OF HEAT SHOCK PROTEIN INHIBITORS FOR THE TREATMENT OF NEURODEVELOPMENTAL DISORDERS” (The Children's Medical Center Corporation, priority 2020, published 2023).
